Source: patent US20200247808A1, “Heterocyclic Tec-Family Kinase Inhibitors” (GB005, Inc., priority 2015, published 2020)
pEC50: −log10 of the molar value. Entries after “also recorded” stand apart in the source; their conditions may differ. Read-outs that look alike come from different tables or passages of the source.

Columns and labels:
[1] = Mouse plasma pharmacokinetics; format: in vivo, mouse (CD-1); details: male, CD-1, mouse, mice; for AUC / Cmax: free base; for bioavailability: oral 10 mg/kg vs intravenous 3 mg/kg
Protocol: Plasma pharmacokinetic studies were conducted in CD1 mice to compare the plasma exposure following oral and intravenous administration of the free-base form of each compound to mice and to calculate bioavailability. Male CD-1 mice (25-30 g on delivery; Charles River) were used for mouse PK studies. The mice were housed 3 per cage in a room under controlled conditions of temperature ([…]) and humidity (40-70%), with a 12 h dark/light cycle. The animals were acclimated for a minimum of 3 days prior to use and received standard rodent chow (Charles River) and municipal tap water ad libitum. Nine animals were used per study, they were dosed PO or IV and bled from the mandibular vein, 2 to 3 times per animal at the following time points; pre dose, 15 and 30 min, 1, 2, 3, 5, 7 and 24 h (0.1 mL whole blood /time point; composite PK). Blood was collected into microvette K3E tubes ([…]) at RT and then centrifuged at 5,000 RPM for 2 min at 4° C. in order to separate plasma. Isolated plasma (0.015 mL/time point) was pipetted into 96 well plates (Canadian Life Science) which were stored at minus 20° C. until analysis (2 duplicate plates per study).
Concentrations of compound in rodent plasma samples were determined by LC-MS-MS. Two standard curves containing 8 points each were prepared by spiking in methanol or plasma with a solution containing the test article at a defined concentration. The range of final compound concentration in the standard curve was 0 to 1 μg/mL. Three sets of quality control (QC) samples in plasma at low, medium and high concentration within the standard curve range were also prepared. For analysis, the compound was extracted using protein precipitation extraction procedure. Briefly, a three-fold volume of methanol containing an internal standard was added to the plasma and standard curve solution samples and then incubated at 4° C. for 5 minutes. The plates were centrifuged for 30 minutes at 4° C. at 4000 rpm and the resulting supernatant was transferred to a 96-well propylene plates and sealed with cover to avoid sample evaporation. Ten μL aliquots of extracted samples were injected using a 96-well plate autosampler held at 4° C. onto a ACE C18 50×4.6 mm, 3 um HPLC column held at 30° C. Plasma derived parent compound was eluted using the following conditions: pump flow rate was set at 1 mL/min for a five minutes chromatographic method using a 3 min gradient elution from 20% solvent A (0.1% formic acid in water) and 80% solvent B (0.1% Formic Acid in Methanol) to 10% solvent A and 90% solvent B. The method was followed by 1 min column wash at 95% solvent B and 1 min column re-equilibration back to 80% solvent B. Under these conditions the compound was eluted after 1.8 minutes. For LC-MS-MS compound detection, the curtain gas was set at 10, collision gas was set at 8, ion spray voltage was set at 4500, temperature was set at 500, ion source gas 1 was set at 40 and ion source gas 2 was set at 60. Using a positive ionization mode, the MRM transition monitored was set at […]. Under these conditions, standard curves were linear up to 2000 ng/mL, the lower limit of quantification was generally at 10 ng/mL.
The area under the curve (AUCtot and AUClast), the maximum plasma concentration (Cmax) and time (Tmax), and terminal half life (T1/2), clearance and volume of distribution were calculated by regression analysis using Kinetica version 5.0 (Thermo Fisher Scientific) using a Non-Compartmental Extravascular/IV Bolus analysis model.

[2] = system: collagen-induced arthritis; assay: Mouse CIA (collagen-induced arthritis) model; format: in vivo, mouse (B10RIII); details: mice, oral gavage 10 and 30 mg/kg, BID, to RA day 12
Protocol: Mouse CIA model was performed using the methods described by Trentham D E, Townes A S, Kang A H. Autoimmunity to Type II Collagen: An Experimental Model of Arthritis. J Exp Med 1977; 857-868, and Bendele A M. Animal Models of Rheumatoid Arthritis. J Musculoskel Interact 2001; 377-385.
[…]. On experimental day 0 mice were anaesthetized with isoflurane and the dorsal surface was shaved. Collagen, emulsified in Freund's complete adjuvant (CFA) supplemented with additional mycobacterium tuberculosis (TB) H37Ra, was injected intradermally at the base of the tail (0.15 mL / animal; 2 mg/mL collagen and 2.5 mg/mL TB in CFA). This CFA treatment was repeated on day 15.
From day 15 to the end of the study animals were scored daily for signs of arthritis. On the first day of disease (RA Day 1) animals were recruited to the study and grouped using a balanced design based on arthritis score. Once recruited, animals were weighed and dosed twice daily by gavage (PO, BID). Recruited animals were then scored twice a week on RA days 1, 5, 8 and 12.
At the end of the study (RA day 12) animals were weighed and scored.

[3] = system: TMD-8 xenograft B-cell lymphoma; assay: Antitumor activity study, TMD-8 xenograft; format: in vivo, mouse (Scid); details: Scid mice, once daily oral gavage from d21
Protocol: Female C.B-17/IcrHsd-PrkdcsidLystbg-J mice (Scid mice; Harlan, 6-8 wk on delivery) were used for these studies. The mice were housed 4 per cage in a ventilated rack in a room under controlled conditions of temperature (20-25° C.) and humidity (40-70%), with a 12 h dark/light cycle. The animals were fed ad libitum with irradiated rodent diet (Harlan) and received autoclaved tap water. The cage, bedding and enrichment materials inside the home cage were autoclaved prior to use and all cage and animal manipulations were carried out inside a sterile laminar flow hood. Animals were acclimated for 1 week prior to cell injection.
TMD-8 human activated B cell diffuse large B cell lymphoma cells were grown in HyClone RPMI supplemented with 10% FBS (Fisher)/1% Penicillin/Streptomycin (HyClone) at 37° C., 5% CO2 and then prepared for injection. […]
When the mean tumor volume reached 200-300 mm^3 (d21) mice were randomized into groups of 10 based on tumor size and treatment was initiated. […] General condition and BW of all mice was assessed daily and tumor measurements collected twice per week (Mon and Thur). […]
The long (a) and short (b) axis of tumors were measured with electronic calipers (Mitutoyo) and tumor volume (mm^3) was calculated (a*b^2/2) and temporal changes in tumor volume and body weight were assessed day 21 (d21) to […].

EGFR = EGFR (Homo sapiens, UniProt P00533); assay: Inhibition of cellular EGFR (EGF-stimulated EGFR autophosphorylation in MDA-468 cells); format: cell-based; set-up: MDA-468 human breast tumor cells which express functional EGFR; endogenous in cells; host or cells: MDA-468 human breast tumor cells; details: 1 h pretreatment, 10 ng/mL EGF 5 min, phospho-EGFR/EGFR ratio
EGFR, sequence (P00533 25-1210): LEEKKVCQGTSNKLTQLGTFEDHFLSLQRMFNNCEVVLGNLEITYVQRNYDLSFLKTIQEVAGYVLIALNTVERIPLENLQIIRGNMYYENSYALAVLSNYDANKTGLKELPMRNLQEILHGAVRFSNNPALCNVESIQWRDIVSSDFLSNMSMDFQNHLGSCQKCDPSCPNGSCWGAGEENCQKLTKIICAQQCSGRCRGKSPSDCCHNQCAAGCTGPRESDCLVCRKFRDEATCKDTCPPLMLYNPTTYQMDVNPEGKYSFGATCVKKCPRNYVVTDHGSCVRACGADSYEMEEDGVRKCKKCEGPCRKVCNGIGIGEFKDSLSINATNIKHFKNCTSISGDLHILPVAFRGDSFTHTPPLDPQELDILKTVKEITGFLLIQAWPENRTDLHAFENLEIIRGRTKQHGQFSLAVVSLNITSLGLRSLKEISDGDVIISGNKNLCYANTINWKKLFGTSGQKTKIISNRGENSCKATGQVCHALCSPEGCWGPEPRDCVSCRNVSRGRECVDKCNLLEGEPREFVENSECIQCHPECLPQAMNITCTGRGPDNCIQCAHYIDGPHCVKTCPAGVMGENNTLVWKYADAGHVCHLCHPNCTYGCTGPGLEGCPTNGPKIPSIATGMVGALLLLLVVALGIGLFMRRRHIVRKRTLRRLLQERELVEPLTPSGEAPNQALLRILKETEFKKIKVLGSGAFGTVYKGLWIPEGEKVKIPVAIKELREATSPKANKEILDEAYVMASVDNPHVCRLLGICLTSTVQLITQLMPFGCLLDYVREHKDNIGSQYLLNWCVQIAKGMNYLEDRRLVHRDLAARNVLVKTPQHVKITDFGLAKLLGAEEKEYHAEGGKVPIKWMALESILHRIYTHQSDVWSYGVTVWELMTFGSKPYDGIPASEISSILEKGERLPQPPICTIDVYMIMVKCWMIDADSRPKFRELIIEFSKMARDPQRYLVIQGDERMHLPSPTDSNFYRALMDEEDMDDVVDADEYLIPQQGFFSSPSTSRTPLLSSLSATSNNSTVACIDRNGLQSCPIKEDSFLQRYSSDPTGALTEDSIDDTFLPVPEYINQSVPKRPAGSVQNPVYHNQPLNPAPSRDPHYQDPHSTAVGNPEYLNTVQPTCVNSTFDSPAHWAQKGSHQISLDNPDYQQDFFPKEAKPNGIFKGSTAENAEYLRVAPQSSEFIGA
Protocol: Cells were plated at a densitity of 400 000 cells/well in 6×12-well plates in a final volume of 1 ml/well in DMEM high glucose+10% FBS +1% Pen/Strep and cultured at 37 C and 5% CO2 overnight. The following day the media was replaced with serum free media and the cells were cultured for a further 24 hours.
Cells were pretreated with compound for 1 hour and then stimulated with 10 ng/mL EGF for 5 minutes. Media was removed and cells were lysed in 100 uL/well of RIPA buffer+1% Protease Inhibitor cocktail+1% Phosphatase inhibitor cocktail. Protein concentrations were determined by
BCA assay. 25μ of cellular protein from each cell treatment was separated by SDS-PAGE. Proteins were transferred to nitrocellulose membranes and blocked with TBS-T+5% non-fat milk. EGFR and phospho-EGFR were detected following incubation overnight at 4° C. with Rabbit anti-phospho-EGFR (Tyr1068) (Cell signaling) diluted 1/1000 and Mouse anti-EGFR (1F4) (Cell signaling) diluted 1/1000 in TBS-T+5% nonfat dry milk and then incubation for 1 h at RT with IR Dye 800CW goat anti-rabbit diluted 1/15000 and with IR Dye 680RD goat anti-mouse diluted 1/15000 in TBS-T+5% nonfat dry milk+0.01% SDS. Antibody binding was quatified using a Li-cor Odyssey CLx. Phospho-EGFR/EGFR ratios were calculated for each test condition of control and test article and the EC50 of inhibiton of EGF-stimulated EGFR phosphorylation was calculated.

[4] = intravenous 3 mg/kg, read-out: Intravenous AUC
[5] = oral 10 mg/kg, read-out: Oral AUC

| AUC [1, 4] [ng·h/mL] | bioavailability [1] [%] | Cmax ([1]; oral 10 mg/kg) [ng/mL] | AUC [1, 5] [ng·h/mL] | pEC50 (EGFR) | Compound | Effect on arthritis in mouse CIA model [2] | Effect on TMD-8 xenograft tumor growth [3] |
| --- | --- | --- | --- | --- | --- | --- | --- |
| 841 | 52 | 1280 | 1450 | 5.23 | CC#CC(=O)N[C@H]1C[C@@H](n2nc(-c3ccc(Oc4ccccc4)cc3)c3c(N)ncnc32)C1 [Compound 1] | prevented the progression of arthritis; also recorded: effective in the mouse collagen-induced arthritis model | reduce growth of TMD-8 xenograft B-cell lymphoma; also recorded: reduce tumor growth |
| 954 | 45 | 1350 | 1440 | 6.42 | C=CC(=O)N[C@H]1C[C@@H](n2nc(-c3ccc(Oc4ccccc4)cc3)c3c(N)ncnc32)C1 [Compound 2] | prevented the progression of arthritis; also recorded: effective in the mouse collagen-induced arthritis model | reduce growth of TMD-8 xenograft B-cell lymphoma; also recorded: reduce tumor growth |
